What was measured:
[1] = 1.2 million Lux.·hr total illumination and 200 W·hr/m^2 total near-ultraviolet radiation energy; cited from earlier work
[2] = Color change (ΔE) after light irradiation, spectral color contrast meter; format: physicochemical; conditions: irradiated with 10000 Lux./hr of light for 5 days; based on color tone immediately after manufacturing; mean of 5 tablets
Procedure: Using a spectral color contrast meter (NIPPON DENSHOKU INDUSTRIES CO., LTD., Model: SE-6000), the color change ΔE value of the preparation irradiated with 10000Lux./hr of light for 5 days was measured based on the color tone of the preparation immediately after manufacturing, and the mean value of the measurement value of 5 tablets was calculated.
(§1) In the anhydrous dasatinib-containing tablet having the film-coating part, the amount of the film-coating part and the percentage of the titanium oxide in the film-coating part were varied, respectively, and the color change (ΔE) and the total related substances (%) of the preparations irradiated with 10000 Lux./hr of light for 5 days were determined, respectively.
For color change, the ΔE value of the amount of color change was measured using a spectral color contrast meter (NIPPON DENSHOKU INDUSTRIES CO., LTD., Model: SE-6000) based on the color tone of the drug product immediately after manufacturing, and the mean value of the measured value of 5 tablets was calculated.

[3] = Total related substances (%) by liquid chromatography after light irradiation; format: physicochemical; conditions: irradiated with 10000 Lux./hr of light for 5 days; peak area ratio, LC, 230 nm
Procedure: In the description, the purities of the anhydrous dasatinib were evaluated using liquid chromatography as an assessment of the stability. The ratio of the peak area of related substances derived from the anhydrous dasatinib to that of the anhydrous dasatinib was calculated to determine the total related substances (%).
as §1
For the total related substances, the purities of the anhydrous dasatinib were evaluated using liquid chromatography as shown below. The ratio of the peak area of the related substances derived from the anhydrous dasatinib to that of the anhydrous dasatinib was calculated to determine the total related substances (%). Specifically, a column was octadecylsilated silica gels (particle size, 5 μm; column inner diameter, 4.6 mm; column length, 250 mm; GL Sciences), mobile phase A was 0.01 M aqueous potassium dihydrogen phosphate solution, mobile phase B was acetonitrile, and the detector was ultraviolet absorbance spectrophotometer (measured wavelength: 230 nm), respectively. […]

Cc1nc(Nc2ncc(C(=O)Nc3c(C)cccc3Cl)s2)cc(N2CCN(CCO)CC2)n1 [dasatinib hydrate]
stability under light stress testing [1]: no changes were observed

Cc1nc(Nc2ncc(C(=O)Nc3c(C)cccc3Cl)s2)cc(N2CCN(CCO)CC2)n1 [Comparative Example 1, anhydrous dasatinib]
color change ΔE value [2]: 18.56
total related substances (%) [3]: 0.51%
